Source: ChEMBL document CHEMBL1201862, “PubChem BioAssay data set” (2004)
Active and inactive are the calls of the source.

Assays:
[1] = viability of PTEN-deleted HCT116 cells – cell-based, HCT116 PTEN knockout, dose response (AID 1047); format: functional;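 note: HCT116 colon tumor cells with PTEN knocked out; cells exposed to compound for 60 hours before readout; potency for loss of cell viability measured by luminescence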
[2] = viability of HCT116 lacking mutant beta-catenin – cell-based, human colon tumor, dose response (AID 1045); format: functional;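 note: HCT116 colon tumor cells with beta catenin knocked out; cells exposed to compound for 60 hours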
Cytochrome P450 2C19 = Cytochrome P450 2C19 (Homo sapiens, UniProt P33261); experiment: Cytochrome panel assay with activity outcomes. Panel member name: p450-cyp2c19 Compounds with AC50 equal or less than 10 uM are considered active; format: functional; settings: read-out: AC50
Cytochrome P450 3A4 = Cytochrome P450 3A4 (Homo sapiens, UniProt P08684);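 note: CYP3A4 tested as one member of a cytochrome P450 panel screen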
[3] = Luminescence Cell-Based Dose Retest to Confirm Inhibitors of Cancer Stem Cells. [Related pubchem assays (depositor defined):AID2717, AID2721]; format: functional; settings: Homo sapiens
Cytochrome P450 2C9 = Cytochrome P450 2C9 (Homo sapiens, UniProt P11712)
[4] = biological target: T1, Corticotropin-releasing factor receptor 2/Corticotropin-releasing factor-binding protein (Homo sapiens, UniProt P24387+Q13324); experiment: activators of CRF receptor 2 with binding protein – uHTS hits, confirmation (AID 602473); format: functional; settings: read-out: EC50_Mean
T1 sequence (Q13324 whole entry): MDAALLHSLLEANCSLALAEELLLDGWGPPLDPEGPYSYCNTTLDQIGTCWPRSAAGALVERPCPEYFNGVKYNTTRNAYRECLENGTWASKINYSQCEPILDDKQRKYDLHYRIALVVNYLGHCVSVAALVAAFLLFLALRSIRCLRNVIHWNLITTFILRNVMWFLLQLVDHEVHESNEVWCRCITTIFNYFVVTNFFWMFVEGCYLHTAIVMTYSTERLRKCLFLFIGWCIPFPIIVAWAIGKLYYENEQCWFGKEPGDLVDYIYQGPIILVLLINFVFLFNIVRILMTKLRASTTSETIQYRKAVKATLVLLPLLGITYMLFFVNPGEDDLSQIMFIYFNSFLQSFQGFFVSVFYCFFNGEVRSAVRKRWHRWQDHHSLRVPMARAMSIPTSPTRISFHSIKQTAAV
T1 sequence (P24387 whole entry): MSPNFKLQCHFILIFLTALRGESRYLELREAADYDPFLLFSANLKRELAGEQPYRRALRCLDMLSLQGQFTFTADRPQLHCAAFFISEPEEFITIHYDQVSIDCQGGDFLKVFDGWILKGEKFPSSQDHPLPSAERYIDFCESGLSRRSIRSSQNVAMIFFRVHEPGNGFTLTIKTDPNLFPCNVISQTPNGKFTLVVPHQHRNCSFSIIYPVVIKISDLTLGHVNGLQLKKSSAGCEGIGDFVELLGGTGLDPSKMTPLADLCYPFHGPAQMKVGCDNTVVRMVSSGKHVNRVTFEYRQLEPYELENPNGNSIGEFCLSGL

Cytochrome P450 1A2 = biological target: T2, Cytochrome P450 1A2 (Homo sapiens, UniProt P05177);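 note: PubChem cytochrome P450 panel assay, CYP1A2 panel member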
T2 sequence (P05177 whole entry): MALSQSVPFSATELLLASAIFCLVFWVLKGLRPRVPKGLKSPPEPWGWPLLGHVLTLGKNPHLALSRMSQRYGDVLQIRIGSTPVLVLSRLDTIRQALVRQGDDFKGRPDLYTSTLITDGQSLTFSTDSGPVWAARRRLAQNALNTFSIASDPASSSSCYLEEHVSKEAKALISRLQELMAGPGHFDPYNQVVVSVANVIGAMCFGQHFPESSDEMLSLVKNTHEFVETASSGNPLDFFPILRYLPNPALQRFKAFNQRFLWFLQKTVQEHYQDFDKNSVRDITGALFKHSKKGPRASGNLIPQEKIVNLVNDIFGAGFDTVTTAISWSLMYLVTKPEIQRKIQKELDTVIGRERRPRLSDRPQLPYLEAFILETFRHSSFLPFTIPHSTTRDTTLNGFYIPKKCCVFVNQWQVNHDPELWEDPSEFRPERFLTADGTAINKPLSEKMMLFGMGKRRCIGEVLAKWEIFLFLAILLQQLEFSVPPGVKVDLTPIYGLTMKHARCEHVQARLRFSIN

[5] = Trypanosoma cruzi growth suppression in host cells – NIH3T3 host cells, beta-gal luminescence, confirmation (AID 2044); format: functional, cell-based;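 note: intracellular parasites grown in NIH/3T3 mouse fibroblasts as host cells; luminescent beta-galactosidase reporter signal from transgenic T. cruzi replicating inside host cells; inhibitors lower the luminescence signal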
[6] = NIH3T3 cell viability loss – ATP luminescence, mouse fibroblasts, counter-screen, dose response (AID 2010); format: functional, cell-based;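 note: cells exposed to compound for about 90 hours before reading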
[7] = tested on: Streptococcus sp. 'group A'; experiment: Streptococcus pyogenes SK(-)GAS viability under kanamycin – luminescence, BacTiterGlo, confirmation, counter-screen for streptokinase expression inhibitor project, dose response (AID 1900); format: functional, organism-based
Streptococcus = experiment: GAS UMAA2166 growth inhibition – luminescence, BacTiterGlo, counter-screen for streptokinase expression inhibitor project, dose response (AID 1915); format: functional, organism-based;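 note: potency for reduction of bacterial viability or growth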

Cytochrome P450 2C9, sequence (P11712 whole entry): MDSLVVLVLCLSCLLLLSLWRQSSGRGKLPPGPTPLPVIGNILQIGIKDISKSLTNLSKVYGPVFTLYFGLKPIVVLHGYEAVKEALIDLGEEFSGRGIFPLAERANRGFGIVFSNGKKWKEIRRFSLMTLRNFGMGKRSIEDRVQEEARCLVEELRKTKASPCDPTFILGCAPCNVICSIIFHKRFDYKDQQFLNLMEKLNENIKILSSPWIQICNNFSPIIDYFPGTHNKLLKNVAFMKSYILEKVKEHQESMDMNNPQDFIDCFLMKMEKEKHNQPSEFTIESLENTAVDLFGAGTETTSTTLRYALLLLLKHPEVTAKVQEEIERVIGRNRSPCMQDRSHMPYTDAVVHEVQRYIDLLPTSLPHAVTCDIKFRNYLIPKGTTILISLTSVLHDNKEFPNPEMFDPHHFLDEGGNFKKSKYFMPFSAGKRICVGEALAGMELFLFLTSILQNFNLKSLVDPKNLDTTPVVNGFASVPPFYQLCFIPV
Cytochrome P450 3A4, sequence (P08684 whole entry): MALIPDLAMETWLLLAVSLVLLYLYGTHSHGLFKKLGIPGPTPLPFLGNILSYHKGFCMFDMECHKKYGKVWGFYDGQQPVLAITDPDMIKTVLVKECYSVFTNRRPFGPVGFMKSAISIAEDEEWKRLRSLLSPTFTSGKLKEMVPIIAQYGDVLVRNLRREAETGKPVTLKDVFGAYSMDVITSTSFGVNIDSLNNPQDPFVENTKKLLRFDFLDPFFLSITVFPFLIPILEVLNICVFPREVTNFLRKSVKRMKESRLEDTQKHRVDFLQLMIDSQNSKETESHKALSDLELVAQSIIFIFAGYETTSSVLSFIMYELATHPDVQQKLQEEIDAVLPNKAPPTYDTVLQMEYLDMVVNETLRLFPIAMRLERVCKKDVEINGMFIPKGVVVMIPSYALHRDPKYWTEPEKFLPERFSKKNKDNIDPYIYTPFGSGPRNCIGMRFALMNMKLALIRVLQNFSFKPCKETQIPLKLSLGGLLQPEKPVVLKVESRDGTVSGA
Cytochrome P450 2C19, sequence (P33261 whole entry): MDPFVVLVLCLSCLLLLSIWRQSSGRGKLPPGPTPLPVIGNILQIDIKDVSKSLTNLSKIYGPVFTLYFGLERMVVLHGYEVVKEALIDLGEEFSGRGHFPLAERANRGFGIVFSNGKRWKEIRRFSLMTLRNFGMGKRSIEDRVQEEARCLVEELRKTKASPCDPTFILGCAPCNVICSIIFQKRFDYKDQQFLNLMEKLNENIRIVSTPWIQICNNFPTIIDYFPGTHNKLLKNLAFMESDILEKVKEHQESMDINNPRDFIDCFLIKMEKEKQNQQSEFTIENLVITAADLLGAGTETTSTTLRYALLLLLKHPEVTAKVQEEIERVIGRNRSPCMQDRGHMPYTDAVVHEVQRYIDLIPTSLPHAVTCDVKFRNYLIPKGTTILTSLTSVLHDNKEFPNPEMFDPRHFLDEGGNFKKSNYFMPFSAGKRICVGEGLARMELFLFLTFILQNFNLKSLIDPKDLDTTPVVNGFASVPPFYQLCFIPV

SMILES: Clc1ccc(CN(Cc2ccccc2)C(c2cccs2)c2nnnn2C2CCCC2)cc1 (stereo not drawn)
- EC50 [1]: 53.2 µM (active)
- EC50 [2]: 32.8 µM (active)

SMILES: COc1ccc(C(=O)/C=C(/C)N(C)C)cc1
- AC50 (Cytochrome P450 2C19): 11.2 µM (inconclusive)
- AC50 (Cytochrome P450 3A4): 5.01 µM (inconclusive)

SMILES: O=C(CSc1nnc(-c2ccc3c(c2)OCO3)o1)Nc1ncc(Cl)cc1Cl
- EC50 [1]: 11.4 µM (active)
- EC50 [2]: 9.18 µM (active)

SMILES: CCOc1ccc(OCc2cccc(C(=O)Nc3ccc(CN4CCCCC4)cc3)c2)cc1
- AC50 [3]: 5.46 µM (active)

SMILES: COc1ccc(C(C(=O)NC2CCCCC2)N(C(=O)CCCC(=O)Nc2ccccn2)c2ccc3c(c2)OCCO3)cc1 (stereo not drawn)
- AC50 (Cytochrome P450 2C19): 7.94 µM (inconclusive)
- AC50 (Cytochrome P450 2C9): 14.1 µM (inconclusive)

SMILES: Cc1ccc2oc(=O)c(/C=C(\O)c3sc(C)nc3C)nc2c1
- EC50 [4]: 7.67 µM (active)

SMILES: CN1CCN(c2ncnc3ccc(-c4cccc(C#N)c4)cc23)CC1
- AC50 (Cytochrome P450 3A4): 25.1 µM (inconclusive)

SMILES: Cn1c(N)c(C(=O)CSc2ccc3c(c2)OCCO3)c(=O)n(C)c1=O
- AC50 (Cytochrome P450 2C9): 39.8 µM (inconclusive)

SMILES: C=CCc1cccc(CNc2nc3ccccc3n2CCC)c1O
- AC50 [3]: 7.58 µM (active)

SMILES: O=C1N/C(=C\c2ccc(N3CCOCC3)c(F)c2)C(=O)N1Cc1ccccc1
- AC50 (Cytochrome P450 1A2): 2 µM (inconclusive)
- AC50 (Cytochrome P450 3A4): 0.794 µM (inconclusive)

SMILES: COc1cc2c(c(OC)c1OC)-c1ccc(O)c(=O)cc1[C@H](N)CC2
- AC50 (Cytochrome P450 3A4): 3.16 µM (inconclusive)

SMILES: CC1CN(CCCCOc2cccc(Oc3ccccc3)c2)CC(C)O1 (stereo not drawn)
- EC50 [5]: 1.01 µM (active)
- EC50 [6]: > 60 µM (inconclusive)
- AC50 [3]: 13.3 µM (active)

SMILES: CN(C)C(=O)c1ccc(-c2cncnc2Nc2ccccc2)cc1
- AC50 (Cytochrome P450 1A2): 31.6 µM (inconclusive)
- AC50 (Cytochrome P450 3A4): 5.01 µM (inconclusive)

SMILES: COC(=O)c1sccc1NC(=O)c1cc(-c2cccc(C)c2)nc2ccccc12
- EC50 [1]: 6.74 µM (active)
- EC50 [2]: 8.24 µM (active)

SMILES: C[C@H](C(=O)c1ccncc1)c1ccccn1
- AC50 (Cytochrome P450 3A4): 3.98 µM (inconclusive)

SMILES: CCc1cc2ccc(C)cc2nc1SCC(=O)c1ccc(NC(C)=O)cc1
- AC50 [3]: 3.68 µM (active)

SMILES: CC/C(=C\C1CCCCC1)C(NP(=O)(c1ccccc1)c1ccccc1)c1ccccc1 (stereo not drawn)
- EC50 [7]: 1.68 µM (active)
- EC50 (Streptococcus): 2.26 µM (active)
- AC50 [3]: 2.58 µM (active)

SMILES: Cn1c(C(=O)NCCCN2CCN(c3ccccc3F)CC2)cc2c(=O)n(C)c3ccccc3c21
- EC50 [1]: 17.2 µM (active)
- EC50 [2]: 17.7 µM (active)

SMILES: Brc1ccccc1OCCOCCOc1cccc2cccnc12
- AC50 (Cytochrome P450 2C19): 3.16 µM (inconclusive)
- AC50 (Cytochrome P450 3A4): 39.8 µM (inconclusive)
- AC50 (Cytochrome P450 2C9): 11.2 µM (inconclusive)
